Tests used:
[1] = system: subject; test: Net gain in lines of visual acuity at 45 centimeters after binocular instillation of aceclidine enantiomer solutions (Example 1, prophetic); format: in vivo; conditions: for Net gain in lines of visual acuity versus baseline, monocularly: first figure of cell; for Net gain in lines of visual acuity versus baseline, binocularly: second figure of cell
Experimental: Solutions containing scalemic mixtures of or enantiomerically pure aceclidine in 1.50% w/v polysorbate 80, 1.2% w/v hydroxypropylmethyl cellulose, 0.1% w/v disodium ethylenediaminetetraacetic acid, 0.1% w/v sorbate in 0.9% w/v sodium chloride buffered saline at a pH of 6.5 were instilled, binocularly in a subject. The subject's visual acuity at 45 centimeters was then tested both monocularly and binocularly. Net gain in lines of visual acuity versus baseline monocularly/binocularly are shown in Table 1 below at 1, 2 and 5 hours post-instillation.

[2] = system: accommodation; conditions: cited from earlier work

Compound | Net gain in lines of visual acuity versus baseline, monocularly ([1]; 1 hour post-instillation) | Net gain in lines of visual acuity versus baseline, binocularly ([1]; 1 hour post-instillation) | Net gain in lines of visual acuity versus baseline, monocularly ([1]; 2 hours post-instillation) [lines] | Net gain in lines of visual acuity versus baseline, binocularly ([1]; 2 hours post-instillation) [lines] | Net gain in lines of visual acuity versus baseline, monocularly ([1]; 5 hours post-instillation) [lines] | Net gain in lines of visual acuity versus baseline, binocularly ([1]; 5 hours post-instillation) [lines] | induced accommodation documented in presbyopes ([2]; 2% concentration, presbyopes) [D] | induced accommodation ([2]; as little as, with a range of variability) [D]
CC(=O)OC1CN2CCC1CC2 (centres unmarked) [50/50, aceclidine] | 2.00 lines | 3.00 lines | 1.50 | 2.50 | 1.00 | 1.50 |  | 
CC(=O)OC1CN2CCC1CC2 (centres unmarked) [100/0, aceclidine] | 2.00 lines | 3.50 lines | 1.75 | 3.00 | 1.50 | 2.50 |  | 
CC[C@@H]1C(=O)OC[C@@H]1Cc1cncn1C [Pilocarpine, pilocarpine] |  |  |  |  |  |  | ≥ −5 | 
CC(=O)OC1CN2CCC1CC2 (centres unmarked) [aceclidine] |  |  |  |  |  |  |  | −0.37
aceclidine [25/75] | 1.50/1.50 lines | 1.50/1.50 lines | 0.75 | 1.25 | 0.50 | 1.00 |  | 
aceclidine [62.5/22.5] | 1.40 lines | 3.20 lines | 1.70 | 2.70 | 1.20 | 1.60 |  | 
aceclidine [75/25] | 1.50 lines | 2.50 lines | 1.20 | 2.80 | 0.70 | 2.00 |  | 
aceclidine [87.5/12.5] | 1.75 lines | 3.25 lines | 1.40 | 2.90 | 0.90 | 2.25 |  | 

Reference: patent US20200061036A1, “ACECLIDINE ISOMERS AND SCALEMIC MIXTURES THEREOF FOR THE TREATMENT OF PRESBYOPIA” (Presbyopia Therapies, LLC, priority 2018, published 2020)
